Three compounds from patent US20230103791A1 (GLAXOSMITHKLINE INTELLECTUAL PROPERTY DEVELOPMENT LIMITED, priority 2019, published 2023) can be followed below.

T1 sequence (Q9Y5Y9 whole entry): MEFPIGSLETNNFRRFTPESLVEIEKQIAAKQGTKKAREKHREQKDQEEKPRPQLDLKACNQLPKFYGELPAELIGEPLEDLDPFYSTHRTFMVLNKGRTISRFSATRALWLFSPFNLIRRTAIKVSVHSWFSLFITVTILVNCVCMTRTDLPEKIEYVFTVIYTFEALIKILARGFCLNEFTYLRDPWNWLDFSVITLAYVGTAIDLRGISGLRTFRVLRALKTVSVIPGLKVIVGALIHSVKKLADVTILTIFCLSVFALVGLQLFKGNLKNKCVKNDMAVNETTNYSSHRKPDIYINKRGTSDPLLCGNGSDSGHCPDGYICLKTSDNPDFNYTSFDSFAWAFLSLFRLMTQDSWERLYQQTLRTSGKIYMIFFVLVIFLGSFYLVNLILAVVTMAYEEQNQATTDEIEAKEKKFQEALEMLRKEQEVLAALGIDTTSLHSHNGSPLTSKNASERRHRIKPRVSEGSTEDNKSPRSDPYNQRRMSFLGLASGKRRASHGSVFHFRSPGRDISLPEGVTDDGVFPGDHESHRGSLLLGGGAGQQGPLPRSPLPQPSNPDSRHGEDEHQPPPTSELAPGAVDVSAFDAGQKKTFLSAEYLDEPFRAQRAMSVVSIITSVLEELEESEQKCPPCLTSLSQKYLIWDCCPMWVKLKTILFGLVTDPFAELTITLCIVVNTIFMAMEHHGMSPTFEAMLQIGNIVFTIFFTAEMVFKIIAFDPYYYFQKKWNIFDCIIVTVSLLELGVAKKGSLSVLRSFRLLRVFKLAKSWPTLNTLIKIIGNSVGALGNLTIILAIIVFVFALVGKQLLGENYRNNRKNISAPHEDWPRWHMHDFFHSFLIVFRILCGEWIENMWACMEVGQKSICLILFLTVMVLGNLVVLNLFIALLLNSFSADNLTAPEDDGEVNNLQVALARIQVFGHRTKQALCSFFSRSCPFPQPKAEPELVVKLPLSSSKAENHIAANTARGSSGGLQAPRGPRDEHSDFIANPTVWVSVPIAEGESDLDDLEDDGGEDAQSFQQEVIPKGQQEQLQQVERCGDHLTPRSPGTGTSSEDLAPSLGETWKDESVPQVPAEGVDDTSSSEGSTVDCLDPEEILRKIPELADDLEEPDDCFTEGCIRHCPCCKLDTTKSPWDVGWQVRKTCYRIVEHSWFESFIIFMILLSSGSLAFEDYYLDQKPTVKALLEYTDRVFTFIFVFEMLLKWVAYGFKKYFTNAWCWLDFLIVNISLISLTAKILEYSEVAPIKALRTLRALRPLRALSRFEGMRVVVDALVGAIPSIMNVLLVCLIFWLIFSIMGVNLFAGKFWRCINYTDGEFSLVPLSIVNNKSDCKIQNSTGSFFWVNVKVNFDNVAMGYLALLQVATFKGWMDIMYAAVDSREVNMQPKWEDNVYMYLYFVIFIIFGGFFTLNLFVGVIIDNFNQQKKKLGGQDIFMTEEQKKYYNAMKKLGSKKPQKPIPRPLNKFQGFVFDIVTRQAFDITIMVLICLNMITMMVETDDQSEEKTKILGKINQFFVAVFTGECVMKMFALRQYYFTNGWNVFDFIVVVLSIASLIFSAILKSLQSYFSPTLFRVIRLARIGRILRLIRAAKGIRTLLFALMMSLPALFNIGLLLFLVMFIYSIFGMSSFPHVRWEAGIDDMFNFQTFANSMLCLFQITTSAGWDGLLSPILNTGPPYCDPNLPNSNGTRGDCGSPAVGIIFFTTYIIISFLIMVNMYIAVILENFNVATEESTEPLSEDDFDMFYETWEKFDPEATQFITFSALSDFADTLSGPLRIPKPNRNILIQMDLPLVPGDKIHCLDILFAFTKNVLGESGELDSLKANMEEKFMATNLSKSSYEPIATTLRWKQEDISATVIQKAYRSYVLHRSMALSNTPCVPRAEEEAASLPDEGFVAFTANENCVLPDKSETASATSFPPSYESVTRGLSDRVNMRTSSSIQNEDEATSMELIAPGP
T1 sequence (Q07699 19-218 partner): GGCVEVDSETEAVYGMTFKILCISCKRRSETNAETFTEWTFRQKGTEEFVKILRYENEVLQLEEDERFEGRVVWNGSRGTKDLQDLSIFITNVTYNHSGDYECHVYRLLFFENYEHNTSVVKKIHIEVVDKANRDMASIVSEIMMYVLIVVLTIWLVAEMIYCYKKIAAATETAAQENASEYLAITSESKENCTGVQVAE

The assay concerns the target T1, human Nav1.8 (Homo sapiens, UniProt Q9Y5Y9).
T1 construct: expressed in transfected cells; host or cells: HEK293 (HEK293-Nav1.8)
Description: Nav1.8 sodium channels assay, QPatch 48 HTX electrophysiology in HEK293-Nav1.8 cells. Type of assay: cell-based. The note with it: Table 2; HEK293-Nav1.8, QPatch 48 HTX, half inactivation state voltage protocol (V1/2); single run or average of two or more runs; read-out: Nav1.8 pIC50 (converted). Summed up:
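IC50 came from 6-8 point curves of P2 current amplitude, normalized to baseline and a positive reference, and corrected for run-down using vehicle-only wells. Automated patch clamp used HEK293-Nav1.8 (with Navβ1 and TREK1) at pH 7.4 outside and CsF-based solution inside. An 8 s inactivating step at −46 mV preceded the 0 mV test pulse, repeated at 0.07 Hz.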
On the technique in general: Patch clamp records ionic current or voltage across a cell membrane.
For `Cc1cc(N2CN(c3ccc(F)cc3C)c3cc(C(F)(F)F)ccc3C2=O)cc(=O)[nH]1` [drawing 310, 1-(4-fluoro-2-methylphenyl)-3-(6-methyl-2-oxo-1,2-dihydropyridin-4-yl)-7-(trifluoromethyl)-2,3-dihydroquinazolin-4(1H)-one], the IC50 is 2510 nM.

`Cc1c[nH]c(=O)cc1N1CN(c2ccc(F)cc2C)c2cc(C(F)(F)F)ccc2C1=O` [drawing 311, 1-(4-fluoro-2-methylphenyl)-3-(5-methyl-2-oxo-1,2-dihydropyridin-4-yl)-7-(trifluoromethyl)-2,3-dihydroquinazolin-4(1H)-one]: the IC50 is 1000 nM.

With `Cc1cc(F)ccc1N1CN(c2cc[nH]c(=O)c2C)C(=O)c2ccc(C(F)(F)F)cc21` [drawing 312, 1-(4-fluoro-2-methylphenyl)-3-(3-methyl-2-oxo-1,2-dihydropyridin-4-yl)-7-(trifluoromethyl)-2,3-dihydroquinazolin-4(1H)-one], the IC50 is 1260 nM.
